# Experimental data from patent US10729742B2, “Screening method for the identification of agents capable of activating CD4+CD25+ regulatory T-cells through interactions with the HIV-1 GP120 binding site on CD4” (priority 2007, dated 2020).
# Experiments:
# CD4+CD25+ Treg cells [1] = test: Coculture suppression assay B: CD8+ T effector cell proliferation (3H-Tdr incorporation) with CD4+CD25+ Treg cells and syngenic T cell-depleted PBMC; format: cell-based, human; conditions: for proliferation of CD8+ T cells co-cultured with CD4+CD25+ Treg cells and inactivated syngenic CD3-depleted PBMC: FIG. 1 black bars, compared with CD8+ T cells without Tregs, 3H-Tdr incorporation 4 days later, effect dose-dependent; for proliferation of CD4+CD25+ Tregs: FIG. 1 white bars
# Source text: In order to study the influence of a substance, e.g. HIV-1 gp120 which can bind at least to the epitope given in SEQ ID NO.:1 exclusively on the suppressive function of CD4^+CD25^+ Treg cells, we developed a co-culture assay which contained CD8^+ T cells as effectors to exclude any influence of this substance on the latter (CD8^+ T cells don't express CD4). […] To evaluate the influence of e.g. HIV-1 gp120 on the function of CD4^+CD25^+ Treg cells, isolated CD4^+CD25^+ Treg cells (2.1.4) are co-cultured with syngenic, T cell-depleted and irradiated (50 Gy) PBMC 2.1.6) and allogeneic CD8^+ T effector cells (2.1.3) in presence of varying concentrations (0.1-10 μg/ml) of different HIV-1 gp120 preparations. Briefly, 1×10^5 CD4^+CD25^+ Treg cells are incubated with 3×10^5 syngenic T cell-depleted PBMC in the presence or absence of varying amounts of HIV-1 gp120. Stimulation with 0.5 μg/ml anti-CD3 monoclonal antibody (OKT-3, ebioscience, USA) serves as positive control. No additional stimulation represents negative control. Either immediately or 24 h. later, 1×10^5 allogeneic CD8^+ T effector cells are added to the cultures and proliferation is determined after additional 72 h. by ^3H-Tdr incorporation (37 kBq/well). Functional activation of CD4^+CD25^+ Treg cells via interaction with the epitope as set forth in SEQ ID NO:1 result in suppressed proliferation of CD8^+ T effector cells and therewith identifies a substance as a Treg cell activator (Data see FIG. 1).
# After 3-4 days of incubation of cells in assays provided under (2.2.1), (2.2.2) and (2.2.3) T cell proliferation is measured. For additional 16 h., cells are pulsed with ^3H-Tdr (37 kBq/well, MB Biomedicals), and incorporated radioactivity is measured by using a liquid scintillation counter (Betaplate, Wallac/PerkinElmer). In the absence of a Treg cell activating compound, resting Treg cells cannot inhibit the proliferation of CD4^+ T helper cells or CD8^+ T effector cells (negative control). In contrast, in presence of an activating CD4-binding compound or anti-CD3 monoclonal antibody (positive control) the proliferation of CD4^+ T helper cells or CD8^+ T effector cells is suppressed by CD4^+CD25^+ Treg cells. A reduced incorporated radioactivity resembles suppressed proliferation and identifies CD4^+ T helper cell or CD8^+ T effector cell inhibition and therewith identifies that a CD4^+CD25^+ Treg cell has been activated.
# In order to study the influence of HIV-1 gp120 exclusively on the function of CD4^+CD25^+ Treg cells, we developed a coculture assay which contained CD8^+ T cells as effectors to exclude any influence of HIV-1 gp120 on the latter. Therefore, isolated CD4^+CD25^+ Treg cells are cocultured with T cell-depleted syngenic PBMC and allogeneic CD8^+ T effector cells. […] (All HIV-1 gp120 proteins: Protein Sciences Corp. Meriden, USA).
# 1×10^5 isolated CD25^+ Treg cells were incubated with 3×10^5 irradiated (50 Gy) syngenic T cell-depleted PBMC and 1×10^5 allogeneic CD8^+ T effector cells in presence/absence of different HIV-1 gp120 preparations, addition of 0.5 μg/ml anti-CD3 (OKT-3) served as positive control. Proliferation was determined by ^3H-Tdr-Incorporation 4 days later.
# Grey bars represent proliferation of CD8^+ T cells and inactivated syngenic CD3-depleted PBMC, white bars represent the proliferation of CD4^+CD25^+ Tregs and the black bars represent the proliferation of CD8^+ T cells co-cultured with CD4^+CD25^+ Tregs cells and inactivated syngenic CD3-depleted PBMC. Due to inactivation PBMC don't contribute to proliferation of the samples.
# CD4+CD25+ Treg cells [2] = test: Cytosolic cAMP measurement in CD4+CD25+ Treg cells (cAMP-specific ELISA); format: cell-based, human; conditions: FIG. 2; 1 μg/ml, 16 hours of stimulation, 1×10^6 T cells
# Description: Stimulation of Treg cells results in strong increase of cytosolic (i.e. intracellular) cAMP. Therefore, the analysis of cAMP in Treg cells is an additional method to determine whether a substance which can interfere with HIV-1 gp120 binding to CD4 epitope of a CD4-positive cell can activate a Treg cell. In this assay freshly isolated CD4^+CD25^+ Treg cells (according to 2.1.4) (1×10^5-1×10^6/well) are incubated with anti-CD3 monoclonal antibody (OKT-3; 0.5 μg/ml) or HIV-1 gp120 (0.1-10 μg/ml; Protein Science Corp., Meriden, Conn., USA) or left untreated for 16 hours. To assess cytosolic cAMP-concentrations a cAMP-specific ELISA (Parameter™ Cyclic AMP Assay, Cat. No. KGE002; R&D Systems, Wiesbaden, Germany) is applied. […]
# Activation of Treg cells by the test compound results directly in an increase of cytosolic cAMP. In the absence of a Treg cell activating compound no increase of cAMP in CD4^+CD25^+ Treg cells is detected (negative control). […]
# CD4^+CD25^+ regulatory T cells (CD25) are left untreated (0) or stimulated with an anti-CD3 monoclonal Antibody (OKT-3; 1 μg/ml) or HIV-1 gp120 (1 μg/ml). Upon 16 hours of stimulation the CD4^+CD25^+ regulatory T cells are lysed (1×10^7/ml) and the cytosolic cAMP concentration of 1×10^6 T cells is assessed using a cAMP-specific ELISA. […]
# NOD-Scid mice [3] = test: GVHD induced by transfer of human CD25-depleted PBMC into NOD-Scid mice; lack of weight increase/weight loss as score; format: in vivo; conditions: FIG. 5; 5 μg HIV gp120 injected together with CD25-depleted PBMC, intraperitoneal
# Source text: NOD-Scid mice at the age of three to six days after birth are intraperitoneally injected with 1×10^7 human CD25-depleted PBMC (isolation of human CD25-depleted PBMC according to 2.1.7). GVHD is induced by 1×10^7 human CD25-depleted PBMC at the same magnitude as by transfer of 1×10^7 human non CD25-depleted PBMC into NOD-Scid mice. […] Prevention of GVHD by HIV gp120 or a substance which can interfere with HIV-1 gp120-binding depends on regulatory T cells. Lack of weight increase/weight loss is used as a parameter to score GVHD severity. Data see FIG. 5.
# Three to six days old NOD-Scid mice are intraperitoneally injected with 1×10^7 human CD25-depleted PBMC without (circles) or together with 5 μg HIV gp120 (triangles). […] Lack of weight increase/weight loss is used as a parameter to score GVHD severity.
# NOD-Scid mice [4] = test: GVHD induced by transfer of human PBMC into NOD-Scid mice; lack of weight increase/weight loss as score; format: in vivo; conditions: FIG. 4; 5 μg HIV gp120 injected together with PBMC, intraperitoneal, three to six days old mice
# Source text: NOD-Scid mice, non-obese diabetic/severe combined immunodeficient mice, (mutant allele: Prkdc^Scid strain: NOD.CB 17-Prkdc^Scid, (Shultz et al. 1995)) from the Central Laboratory Animal Facility of the University of Mainz (also purchasable from The Jackson Laboratory via Charles River Laboratories, Germany) are used as an animal model for transfer of peripheral human immune cells and thus for the in vivo analysis of immuno-regulatory interactions (Hesselton et al. 1995). Human peripheral blood mononuclear cells (PBMC) transferred into NOD-Scid mice induce an accelerating […] graft-versus-host disease (GVHD). While the number of cells transferred determines the onset of this disease, the co-transfer of human Tregs can gradually delay or prevent the disease. This model system further allows the study of human Treg function. To induce a GVHD NOD-Scid mice at the age of three to six days after birth are intraperitoneally injected with 1×10^7 to 3×10^7 human PBMC (isolation of human PBMC according to 2.1.1). GVHD is induced by immunological (xenogenic) activation of human effector T cells in the PBMC fraction injected into the mice. NOD-Scid mice, however, are not able to react against the grafted human PBMC. […]
substance,measurement,setting,value
"HIV-1 gp120 MN: HIV-1 gp120 preparation MN, Protein Sciences Corp. Meriden, USA",proliferation of CD8+ T cells co-cultured with CD4+CD25+ Treg cells and inactivated syngenic CD3-depleted PBMC,CD4+CD25+ Treg cells [1],reduced proliferation
same,proliferation of CD4+CD25+ Tregs,CD4+CD25+ Treg cells [1]; 3H-Tdr incorporation,don't show a significant proliferation
"anti-CD3: anti-CD3 monoclonal antibody (OKT-3, ebioscience, USA), positive control [reference compound]",proliferation of CD8+ T cells co-cultured with CD4+CD25+ Treg cells and inactivated syngenic CD3-depleted PBMC,CD4+CD25+ Treg cells [1],reduced proliferation
same,"proliferation of CD8+ T cells and inactivated syngenic CD3-depleted PBMC, without Tregs","CD4+CD25+ Treg cells [1]; FIG. 1 grey bars, 3H-Tdr incorporation",strong increased proliferation
same,proliferation of CD4+CD25+ Tregs,CD4+CD25+ Treg cells [1]; 3H-Tdr incorporation,don't show a significant proliferation
same,cytosolic (intracellular) cAMP in Treg cells compared to untreated control,CD4+CD25+ Treg cells [2],increase of intracellular cAMP
"HIV-1 gp120 LAV: HIV-1 gp120 preparation LAV, Protein Sciences Corp. Meriden, USA",proliferation of CD8+ T cells co-cultured with CD4+CD25+ Treg cells and inactivated syngenic CD3-depleted PBMC,CD4+CD25+ Treg cells [1],reduced proliferation
same,proliferation of CD4+CD25+ Tregs,CD4+CD25+ Treg cells [1]; 3H-Tdr incorporation,don't show a significant proliferation
"HIV-1 gp120: human immune deficiency virus 1 (HIV-1) glycoprotein gp120, binds CD4; Protein Sciences Corp.",development of GVHD (relative body weight) after transfer of 1×10^7 human CD25-depleted PBMC,NOD-Scid mice [3],not protected from development of GVHD
same,cytosolic (intracellular) cAMP in Treg cells compared to untreated control,CD4+CD25+ Treg cells [2],increase of intracellular cAMP
same,development of GVHD (relative body weight) after transfer of 1×10^7 human PBMC,NOD-Scid mice [4],protected from development of GVHD
"HIV-1 gp120 CM: HIV-1 gp120 preparation CM, Protein Sciences Corp. Meriden, USA",proliferation of CD8+ T cells co-cultured with CD4+CD25+ Treg cells and inactivated syngenic CD3-depleted PBMC,CD4+CD25+ Treg cells [1],reduced proliferation
same,proliferation of CD4+CD25+ Tregs,CD4+CD25+ Treg cells [1]; 3H-Tdr incorporation,don't show a significant proliferation
